pKi: −log10 of the molar value.
Biological target: Prothrombin (Homo sapiens, UniProt P00734)
Test: Binding affinity was determined against human thrombin

Compound	pKi
CS(=O)(=O)N1CCN(C(=O)[C@H](Cc2ccc(C(N)NN)cc2)NS(=O)(=O)c2ccc3ccccc3c2)CC1 (stereo partly specified)	7.96
CN(C(=O)[C@H](Cc1ccc(C(N)NN)cc1)NS(=O)(=O)c1cccc2c1CCCC2)C1CCCC1 (stereo partly specified)	8.42
CN(C(=O)[C@H](Cc1ccc(C(N)NN)cc1)NS(=O)(=O)c1ccc2c(c1)CCCCC2)C1CCCC1 (stereo partly specified)	10.35
CN(C(=O)[C@H](Cc1ccc(C(N)NN)cc1)NS(=O)(=O)Cc1ccccc1)C1CCCC1 (stereo partly specified)	7.74
CN(C)c1cccc2c(S(=O)(=O)N[C@@H](Cc3ccc(C(N)NN)cc3)C(=O)N(C)C3CCCC3)cccc12 (stereo partly specified)	9.52
CN(C(=O)[C@H](Cc1ccc(C(N)NN)cc1)NS(=O)(=O)c1ccc2cc3ccccc3cc2c1)C1CCCC1 (stereo partly specified)	10.00

Next, values leading:

pKi	Compound
5.48	CCOC(=O)N1CCN(C(=O)[C@H](Cc2ccc(C(N)NN)cc2)NS(=O)(=O)c2ccc3ccccc3c2)CC1 (stereo partly specified)
8.48	CN(C(=O)[C@H](Cc1ccc(CCN)cc1)NS(=O)(=O)c1ccc2ccccc2c1)C1CCCC1
9.92	CN(C(=O)[C@H](Cc1ccc(C(N)NN)cc1)NS(=O)(=O)c1ccc2c(c1)CCCC2)C1CCCC1 (stereo partly specified)
8.10	CN(C(=O)[C@H](Cc1ccc(C(N)NN)cc1)NS(=O)(=O)c1cccc2ccccc12)C1CCCC1 (stereo partly specified)
9.42	CN(C(=O)[C@H](Cc1ccc(C(N)NN)cc1)NS(=O)(=O)c1ccc2ccccc2c1)C1CCCC1 (stereo partly specified)

Biological target: Prothrombin (Bos taurus, UniProt P00735)
Test: Binding affinity was determined against bovine thrombin.

Compound	pKi
CN(C(=O)[C@H](Cc1ccc(C(N)NN)cc1)NS(=O)(=O)c1ccc2ccccc2c1)C1CC1 (stereo partly specified)	6.61
NC(N)c1ccc(C[C@@H](NC(=O)CNS(=O)(=O)c2ccc3ccccc3c2)C(=O)N2CCCCC2)cc1	8.19
CNC(N)c1ccc(C[C@H](NS(=O)(=O)c2ccc3ccccc3c2)C(=O)N2CCCCCC2)cc1 (stereo partly specified)	7.34
CNC(N)c1ccc(C[C@@H](NC(=O)CNS(=O)(=O)c2ccc3ccccc3c2)C(=O)N2CCCCC2)cc1 (stereo partly specified)	5.27
CCCCN(C)C(=O)[C@H](Cc1ccc(C(N)NN)cc1)NS(=O)(=O)c1ccc2ccccc2c1 (stereo partly specified)	7.39

Second part, the compound after the results:

pKi	Compound
6.82	CN(C(=O)[C@H](Cc1ccc(C(N)NN)cc1)NS(=O)(=O)c1ccc2ccccc2c1)C1CCCCC1 (stereo partly specified)
5.36	NNC(N)c1ccc(C[C@@H](NC(=O)CNS(=O)(=O)c2ccc3ccccc3c2)C(=O)N2CCCCC2)cc1 (stereo partly specified)
8.96	CN(C(=O)[C@H](Cc1ccc(C(N)NN)cc1)NS(=O)(=O)c1ccc2ccccc2c1)C1CCCC1 (stereo partly specified)
7.28	NC(N)c1ccc(C[C@H](NS(=O)(=O)c2ccc3ccccc3c2)C(=O)N2CCCCCC2)cc1
8.82	NNC(N)c1ccc(C[C@H](NS(=O)(=O)c2ccc3ccccc3c2)C(=O)N2CCCCCC2)cc1 (stereo partly specified)
